Values quoted from earlier work as cited in patent US6376005B2, “Antimicrobial composition for food and beverage products” (The Procter & Gamble Company, priority 1997, dated 2002).

Experiments:
[1] = tested on: Zygosaccharomyces bailii
[2] = tested on: bacteria

SMILES: C[C@@H]1C/C=C/C=C/C=C/C=C/[C@H](O[C@@H]2O[C@H](C)[C@@H](O)[C@H](N)[C@@H]2O)C[C@@H]2O[C@](O)(C[C@@H](O)C[C@H]3O[C@@H]3/C=C/C(=O)O1)C[C@H](O)[C@H]2C(=O)O [natamycin]
- effectiveness against yeasts such as Zygosaccharomyces bailii [1]: particularly effective
- effectiveness against bacteria [2]: not effective

SMILES: C/C=C/C=C/C(=O)[O-].[K+] [potassium sorbate]
- effectiveness against yeasts such as Zygosaccharomyces bailii [1]: not effective
